In ChEMBL document CHEMBL1799957, “Cerebrosides and 2-pyridone alkaloids from the halotolerant fungus Penicillium chrysogenum grown in a hypersaline medium” (J Nat Prod, 2011):
Values after ≈ are worked out from the molar mass of the structure shown.

How the values were obtained:
[1] = test system: HL-60; experiment: Cytotoxicity against human HL60 cells by MTT assay; assay type: functional, cell-based
[2] = test system: Klebsiella aerogenes; experiment: Antimicrobial activity against Enterobacter aerogenes by agar dilution method; assay type: functional
[3] = test system: Escherichia coli; experiment: Antimicrobial activity against Escherichia coli by agar dilution method; assay type: functional
[4] = test system: Staphylococcus aureus; experiment: Antimicrobial activity against Staphylococcus aureus by agar dilution method; assay type: functional
[5] = test system: Bacillus subtilis; experiment: Antimicrobial activity against Bacillus subtilis by agar dilution method; assay type: functional
[6] = test system: Candida albicans; experiment: Antimicrobial activity against Candida albicans by agar dilution method; assay type: functional
[7] = test system: A549; experiment: Cytotoxicity against human A549 cells by SRB assay; assay type: functional, cell-based
[8] = test system: Pseudomonas aeruginosa; experiment: Antimicrobial activity against Pseudomonas aeruginosa by agar dilution method; assay type: functional
[9] = test system: HeLa; experiment: Cytotoxicity against human HeLa cells by MTT assay; assay type: functional, cell-based
[10] = test system: P388; experiment: Cytotoxicity against mouse P388 cells by MTT assay; assay type: functional, cell-based

| MIC [2] | MIC [3] | MIC [4] | MIC [5] | MIC [6] | MIC [8] | SMILES | IC50 [1] | IC50 [7] | IC50 [9] | IC50 [10] |
| --- | --- | --- | --- | --- | --- | --- | --- | --- | --- | --- |
| > 150 µM | > 150 µM | > 150 µM | > 150 µM | > 150 µM | > 150 µM | CCCCCCCCCCCCCCC/C=C/[C@@H](O)C(=O)N[C@@H](CO[C@@H]1O[C@H](CO)[C@@H](O)[C@H](O)[C@H]1O)[C@H](O)/C=C/CC/C=C(\C)CCCCC [CHRYSOGESIDE C] |  |  | > 50 µM | > 50 µM |
| > 150 µM | > 150 µM | > 150 µM | > 150 µM | > 150 µM | > 150 µM | CCCCCCCCCCCCCCC/C=C/[C@@H](O)C(=O)N[C@@H](CO[C@@H]1O[C@H](CO)[C@@H](O)[C@H](O)[C@H]1O)[C@H](O)/C=C/CC/C=C(\C)CCCCCCCC [CHRYSOGESIDE D] |  |  | > 50 µM | > 50 µM |

Further lines, the molecule ahead of its results:

| SMILES | MIC [2] | MIC [3] | MIC [4] | MIC [5] | MIC [6] | MIC [8] | IC50 [1] | IC50 [7] | IC50 [9] | IC50 [10] |
| --- | --- | --- | --- | --- | --- | --- | --- | --- | --- | --- |
| CCC[C@H](O)c1ccc(=O)[nH]c1C [CHRYSOGEDONE A] | > 150 µM | > 150 µM | > 150 µM | > 150 µM | > 150 µM | > 150 µM | > 50 µM | > 50 µM |  |  |
| CCC[C@H](O)c1ccc(=O)[nH]c1CO [CHRYSOGEDONE B] | > 150 µM | > 150 µM | > 150 µM | > 150 µM | > 150 µM | > 150 µM | > 50 µM | > 50 µM |  |  |
| CCCCCCC/C=C\CC/C=C/[C@@H](O)[C@H](CO[C@@H]1O[C@H](CO)[C@@H](O)[C@H](O)[C@H]1O)NC(=O)[C@H](O)/C=C/CCCCCCCCCCCCCC [CHRYSOGESIDE A] | > 150 µM | > 150 µM | > 150 µM | > 150 µM | > 150 µM | > 150 µM |  |  | > 50 µM | > 50 µM |
| CCCCCCCCCCCCCCCCC[C@@H](O)C(=O)N[C@@H](CO[C@@H]1O[C@H](CO)[C@@H](O)[C@H](O)[C@H]1O)[C@H](O)/C=C/CC/C=C(\C)CCCCCC [CHRYSOGESIDE E] | > 150 µM | > 150 µM | > 150 µM | > 150 µM | > 150 µM | > 150 µM |  |  | > 50 µM | > 50 µM |
| CCCCCCCCCCCCCCC/C=C/[C@@H](O)C(=O)N[C@@H](CO[C@@H]1O[C@H](CO)[C@@H](O)[C@H](O)[C@H]1O)[C@H](O)/C=C/CC/C=C(\C)CCCCCC [CHRYSOGESIDE B] | 1.72 µM (≈ 1.25 µg/mL) | > 150 µM | > 150 µM | > 150 µM | > 150 µM | > 150 µM |  |  | > 50 µM | > 50 µM |
